What was measured:
[1] = system: corn (Ze); assay: Test Example 11: crop plant selectivity by upland field foliage treatment (corn), phytotoxicity; conditions: upland field foliage treatment, dose 1.6 g ai/10a, 14th day after treatment
How it was run: (§1)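 Corn with pale smartweed, slender amaranth, common lambsquarters and China jute sown in sand-filled pots and grown 2 weeks in a greenhouse before foliage treatment. Herbicidal effect and crop phytotoxicity scored on day 14 after treatment against a rating standard.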

[2] = system: soybean (Gl); assay: Test Example 10: crop plant selectivity by upland field foliage treatment (soybean), phytotoxicity; conditions: dose 1.6 g ai/10a, 14th day after treatment
Description: (§2) (Test on Crop Plant Selectivity by Upland Field Foliage Treatment)
(§3) In a plastic pot (surface area: 600 cm^2) filled with sand, soybean (Gl), pale smartweed (Po), slender amaranth (Am), common lambsquarters (Ch) and China jute (Ab) were sown and cultured in a green house for 2 weeks. […] The plants were then cultured in a green house, and the evaluation of the herbicidal effects and phytotoxicity was conducted on the 14th day after the treatment in accordance with the standards as identified in Table 47.

[3] = system: wheat (Tr); assay: Test Example 9: crop plant selectivity by upland field foliage treatment (wheat), phytotoxicity; conditions: dose 1.6 g ai/10a, 14th day after treatment;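 also: grade of crop injury; 5 = at least 90%; 4 = 70 to 90%; 3 = 50 to 70%; 2 = 30 to 50%; 1 = 10 to 30%; 0 = under 10%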
How it was run: (§4)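 Read-out: weed control and wheat injury, rated by a defined scoring standard 14 days after foliar application.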

[4] = system: slender amaranth (Am); assay: Test Example 9: crop plant selectivity by upland field foliage treatment (wheat), herbicidal effects; type: in vivo; design: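 grade of growth control; 5 = at least 90%; 4 = 70 to 90%; 3 = 50 to 70%; 2 = 30 to 50%; 1 = 10 to 30%; 0 = under 10%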; conditions: dose 1.6 g ai/10a, 14th day after treatment
How it was run: as §4

[5] = system: common lambsquarters (Ch); assay: as above; type: in vivo; design: scale not given here; conditions: dose 1.6 g ai/10a, 14th day after treatment
How it was run: as §4

[6] = system: China jute (Ab); assay: as above; type: in vivo; design: scale not given here; conditions: dose 1.6 g ai/10a, 14th day after treatment
How it was run: as §4

[7] = system: pale smartweed (Po); assay: as above; type: in vivo; design: scale not given here; conditions: dose 1.6 g ai/10a, 14th day after treatment
How it was run: as §4

[8] = system: Digitaria ciliaris (Di); assay: Test Example 2: herbicidal effects by upland field soil treatment; type: in vivo; conditions: 100 g of the active ingredient per 10 ares;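 also: grade of growth control; 5 = at least 90%; 4 = 70 to 90%; 3 = 50 to 70%; 2 = 30 to 50%; 1 = 10 to 30%; 0 = under 10%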
Description: (§5) (Test on Herbicidal Effects by Upland Field Soil Treatment)

[9] = system: slender amaranth (Am); assay: as above; type: in vivo; conditions: 100 g of the active ingredient per 10 ares
Description: as §5

[10] = system: barnyardgrass (Ec); assay: as above; type: in vivo; conditions: 100 g of the active ingredient per 10 ares
Description: as §5

[11] = system: common lambsquarters (Ch); assay: as above; type: in vivo; conditions: 100 g of the active ingredient per 10 ares
Description: as §5

[12] = system: rice flatsedge (Ci); assay: as above; type: in vivo; conditions: 100 g of the active ingredient per 10 ares
Description: as §5

[13] = system: pale smartweed (Po); assay: as above; type: in vivo; conditions: 100 g of the active ingredient per 10 ares
Description: as §5

[14] = system: slender amaranth (Am); assay: Test Example 11: crop plant selectivity by upland field foliage treatment (corn), herbicidal effects; type: in vivo; design: scale not given here; conditions: upland field foliage treatment (corn test), dose 1.6 g ai/10a, 14th day after treatment
How it was run: as §1

[15] = system: common lambsquarters (Ch); assay: as above; type: in vivo; design: scale not given here; conditions: upland field foliage treatment (corn test), dose 1.6 g ai/10a, 14th day after treatment
How it was run: as §1

[16] = system: China jute (Ab); assay: as above; type: in vivo; design: scale not given here; conditions: upland field foliage treatment (corn test), dose 1.6 g ai/10a, 14th day after treatment
How it was run: as §1

[17] = system: pale smartweed (Po); assay: as above; type: in vivo; design: scale not given here; conditions: upland field foliage treatment (corn test), dose 1.6 g ai/10a, 14th day after treatment
How it was run: as §1

[18] = system: slender amaranth (Am); assay: Test Example 3: herbicidal effects by upland field foliage treatment; type: in vivo; design: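 grade of growth control; 5 = at least 90%; 4 = 70 to 90%; 3 = 50 to 70%; 2 = 30 to 50%; 1 = 10 to 30%; 0 = under 10%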
How it was run: (§6)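 Weeds were sown in sand-filled pots (surface area: 120 cm^2), covered with soil and grown in a greenhouse for 2 weeks before foliar treatment. Plants then stayed in the greenhouse, and herbicidal effect was scored against graded standards on the 14th day after treatment.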

[19] = system: Diaitaria ciliaris (Di); assay: as above; type: in vivo; design: scale not given here
How it was run: as §6

[20] = system: barnyardgrass (Ec); assay: as above; type: in vivo; design: scale not given here
How it was run: as §6

[21] = system: common lambsquarters (Ch); assay: as above; type: in vivo; design: scale not given here
How it was run: as §6

[22] = system: rice flatsedge (Ci); assay: as above; type: in vivo; design: scale not given here
How it was run: as §6

[23] = system: pale smartweed (Po); assay: as above; type: in vivo; design: scale not given here
How it was run: as §6

[24] = system: monochoria (Mo); assay: Test Example 1: herbicidal effects by paddy field soil treatment; type: in vivo; conditions: 100 g of the active ingredient per 10 ares, 21st day after the application, index 0-5 of Table 47;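 also: grade of growth control; 5 = at least 90%; 4 = 70 to 90%; 3 = 50 to 70%; 2 = 30 to 50%; 1 = 10 to 30%; 0 = under 10%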
How it was run: (§7)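 Scoring of herbicidal effect came 21 days after application of 100 g active ingredient per 10 ares to flooded (3 cm) paddy-soil pots sown with barnyardgrass, monochoria and bulrush, kept in a greenhouse.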

[25] = system: bulrush (Sc); assay: as above; type: in vivo; conditions: 100 g of the active ingredient per 10 ares, 21st day after the application, index 0-5 of Table 47;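 also: grade of growth control; 5 = at least 90%; 4 = 70 to 90%; 3 = 50 to 70%; 2 = 30 to 50%; 1 = 10 to 30%; 0 = under 10%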
How it was run: as §7

[26] = system: barnyardgrass (Ec); assay: as above; type: in vivo; conditions: 100 g of the active ingredient per 10 ares, 21st day after the application, index 0-5 of Table 47
How it was run: as §7

[27] = system: slender amaranth (Am); assay: Test Example 10: crop plant selectivity by upland field foliage treatment (soybean), herbicidal effects; type: in vivo; conditions: dose 1.6 g ai/10a, 14th day after treatment
Description: as §2, §3

[28] = system: common lambsquarters (Ch); assay: as above; type: in vivo; conditions: dose 1.6 g ai/10a, 14th day after treatment
Description: as §2, §3

[29] = system: China jute (Ab); assay: as above; type: in vivo; conditions: dose 1.6 g ai/10a, 14th day after treatment
Description: as §2, §3

[30] = system: pale smartweed (Po); assay: as above; type: in vivo; conditions: dose 1.6 g ai/10a, 14th day after treatment
Description: as §2, §3

[31] = 21st day after the application, index 0-5 of Table 47
[32] = 100 g of the active ingredient per 10 ares, evaluated on the 14th day after treatment
[33] = evaluated on the 21st day after application
[34] = 100 g active ingredient per 10 ares, evaluated 14th day after treatment

Row | SMILES | Phytotoxicity Ze [1] | Phytotoxicity Gl [2] | Phytotoxicity Tr [3] | Herbicidal effects Am [4] | Herbicidal effects Ch [5] | Herbicidal effects Ab [6] | Herbicidal effects Po [7] | Herbicidal effects Di [8, 31] | Herbicidal effects Am [9, 31] | Herbicidal effects Am [14] | Herbicidal effects Ch [15] | Herbicidal effects Ab [16] | Herbicidal effects Po [17] | Herbicidal effects Mo [24] | Herbicidal effects Sc [25] | Herbicidal effects Ec [26] | Herbicidal effects Am [27] | Herbicidal effects Ch [28] | Herbicidal effects Ab [29] | Herbicidal effects Po [30] | further results
1 | Cn1c(C(F)(F)F)ccc(-c2cc(OC3CCCC3)c(Cl)cc2F)c1=O [1-26] | 2 | 2 | 2 | 5 | 5 | 5 | 5 | 5 | 5 | 5 | 5 | 5 | 5 | 5 | 5 | 5 | 5 | 5 | 5 | 5 | Herbicidal effects Ec [10, 31]: 5; Herbicidal effects Ch [11, 31]: 5; Herbicidal effects Ci [12, 31]: 5; Herbicidal effects Po [13, 31]: 5; Herbicidal effects Am [18, 32]: 5; Herbicidal effects Di [19, 32]: 5; Herbicidal effects Ec [20, 32]: 5; Herbicidal effects Ch [21, 32]: 5; Herbicidal effects Ci [22, 32]: 5; Herbicidal effects Po [23, 32]: 5
2 | C#CCSc1cc(-c2ccc(C(F)(F)F)n(C)c2=O)c(Cl)cc1Cl [1-52] | 2 | 2 | 1 | 5 | 5 | 5 | 5 | 5 | 5 | 5 | 5 | 5 | 5 | – | – | – | 5 | 5 | 5 | 5 | Herbicidal effects Ec [10, 31]: 5; Herbicidal effects Ch [11, 31]: 5; Herbicidal effects Ci [12, 31]: 5; Herbicidal effects Po [13, 31]: 5
3 | CCC(=O)c1cc(-c2ccc(C(F)(F)F)n(C)c2=O)c(F)cc1Cl [1-69] | 2 | 2 | 1 | 5 | 5 | 5 | 5 | 5 | 5 | 5 | 5 | 5 | 5 | 5 | 5 | 5 | 5 | 5 | 5 | 5 | Herbicidal effects Ec [10, 31]: 5; Herbicidal effects Ch [11, 31]: 5; Herbicidal effects Ci [12, 31]: 5; Herbicidal effects Po [13, 31]: 5; Herbicidal effects Am [18, 32]: 5; Herbicidal effects Di [19, 32]: 5; Herbicidal effects Ec [20, 32]: 5; Herbicidal effects Ch [21, 32]: 5; Herbicidal effects Ci [22, 32]: 5; Herbicidal effects Po [23, 32]: 5
4 | COCSc1cc(-c2ccc(C(F)(F)F)n(C)c2=O)c(Cl)cc1Cl [1-126] | 2 | 2 | 2 | 5 | 5 | 5 | 5 | 5 | 5 | 5 | 5 | 5 | 5 | 5 | 5 | 5 | 5 | 5 | 5 | 5 | Herbicidal effects Ec [10, 31]: 5; Herbicidal effects Ch [11, 31]: 5; Herbicidal effects Ci [12, 31]: 5; Herbicidal effects Po [13, 31]: 5; Herbicidal effects Am [18, 32]: 5; Herbicidal effects Di [19, 32]: 5; Herbicidal effects Ec [20, 32]: 5; Herbicidal effects Ch [21, 32]: 5; Herbicidal effects Ci [22, 32]: 5; Herbicidal effects Po [23, 32]: 5
5 | Cn1c(C(F)(F)F)ccc(-c2cc(C(=O)OC3CCCC3)c(Cl)cc2F)c1=O [Compound 1-184] | 1 | 2 | 2 | 5 | 5 | 5 | 5 | – | – | 5 | 5 | 5 | 5 | 5 | 5 | 5 | 5 | 5 | 5 | 5 | Herbicidal effects Di [8, 33]: 5; Herbicidal effects Am [9, 33]: 5; Herbicidal effects Ec [10, 33]: 5; Herbicidal effects Ch [11, 33]: 5; Herbicidal effects Ci [12, 33]: 5; Herbicidal effects Po [13, 33]: 5; Herbicidal effects Am [18, 34]: 5; Herbicidal effects Di [19, 34]: 5; Herbicidal effects Ec [20, 34]: 5; Herbicidal effects Ch [21, 34]: 5; Herbicidal effects Ci [22, 34]: 5; Herbicidal effects Po [23, 34]: 5
6 | Cn1c(C(F)(F)F)ccc(-c2cc(Oc3ccccc3)c(Cl)cc2F)c1=O [Compound No. 1-22] | 2 | 2 | 2 | 5 | 5 | 5 | 5 | – | – | 5 | 5 | 5 | 5 | 5 | 5 | 5 | 5 | 5 | 5 | 5 | Herbicidal effects Am [18, 32]: 5; Herbicidal effects Di [19, 32]: 5; Herbicidal effects Ec [20, 32]: 5; Herbicidal effects Ch [21, 32]: 5; Herbicidal effects Ci [22, 32]: 5; Herbicidal effects Po [23, 32]: 5
